US20090118286A1, “Heterobicyclic Acrylamides” (Bayer Cropscience AG, priority 2005, published 2009)

assay: log P determination by HPLC (EEC Directive 79/831 Annex V.A8, gradient method); format: physicochemical

Row | Structure (SMILES) | Physical data: log P | Physical data: logP
1 | O=C(/C=C/c1c(-c2ccccc2F)nc2sc(C(F)(F)F)nn12)N1CCCCC1 [Example 0506] | 3.59 | 
2 | O=C(/C=C/c1c(-c2ccccc2F)nc2sc(C(F)(F)F)nn12)N1CCOCC1 [Example 0507] | 2.7 | 
3 | CC(COc1ccccc1)NC(=O)/C=C/c1c(-c2ccc(Cl)cc2Cl)nc2sc(C(F)(F)F)nn12 (centres unmarked) [Example 0546] | 4.56 | 
4 | CC(NC(=O)/C=C/c1c(-c2ccc(Cl)cc2Cl)nc2sc(C(F)(F)F)nn12)c1ccccn1 (centres unmarked) [Example 0555] | 2.84 | 
5 | O=C(/C=C/c1c(-c2ccc(Cl)cc2Cl)nc2sc(C(F)(F)F)nn12)NOCC1CC1 [Example 0563] | 3.68 | 
6 | CC(ONC(=O)/C=C/c1c(-c2ccc(Cl)cc2Cl)nc2sc(C(F)(F)F)nn12)c1ccccc1 (centres unmarked) [Example 0565] | 4.23 | 
7 | O=C(/C=C/c1c(-c2ccc(Cl)cc2Cl)nc2sc(C(F)(F)F)nn12)N1CCCCC1 [Example 0574] | 4.31 | 
8 | O=C(/C=C/c1c(-c2ccc(Cl)cc2Cl)nc2sc(C(F)(F)F)nn12)N1CCOCC1 [Example 0575] | 3.34 | 
9 | COc1ccc(-c2nc3sc(C(F)(F)F)nn3c2/C=C/C(=O)NC2CCCC2)cc1OC [Example 0658] |  | 3.26
10 | COc1ccc(-c2nc3sc(C(F)(F)F)nn3c2/C=C/C(=O)NC2CCCCC2)cc1OC [Example 0659] |  | 3.55
11 | COc1ccc(-c2nc3sc(C(F)(F)F)nn3c2/C=C/C(=O)NC(C)c2ccccc2)cc1OC (centres unmarked) [Example 0683] |  | 3.5
12 | COc1ccc(-c2nc3sc(C(F)(F)F)nn3c2/C=C/C(=O)NC(C)COc2ccccc2)cc1OC (centres unmarked) [Example 0689] |  | 3.72
13 | CCC(NC(=O)/C=C/c1c(-c2ccc(OC)c(OC)c2)nc2sc(C(F)(F)F)nn12)C1CCCCC1 (centres unmarked) [Example 0691] |  | 4.46
14 | COc1ccc(-c2nc3sc(C(F)(F)F)nn3c2/C=C/C(=O)NC(C)c2ccccn2)cc1OC (centres unmarked) [Example 0698] |  | 2.16
15 | COc1ccc(-c2nc3sc(C(F)(F)F)nn3c2/C=C/C(=O)NOC(C)c2ccccc2)cc1OC (centres unmarked) [Example 0708] |  | 3.37
16 | COc1ccc(-c2nc3sc(C(F)(F)F)nn3c2/C=C/C(=O)N2CCCCC2)cc1OC [Example 0717] |  | 3.41
17 | COc1ccc(-c2nc3sc(C(F)(F)F)nn3c2/C=C/C(=O)N2CCOCC2)cc1OC [Example 0718] |  | 2.58
18 | CC(C)CNC(=O)/C=C/c1c(-c2ccccc2Cl)nc2sc(C(C)(C)C)nn12 [Example 0794] |  | 3.72
19 | CC(NC(=O)/C=C/c1c(-c2ccccc2Cl)nc2sc(C(C)(C)C)nn12)C(F)(F)F (centres unmarked) [Example 0795] |  | 3.88
20 | CC(C)C(NC(=O)/C=C/c1c(-c2ccccc2Cl)nc2sc(C(C)(C)C)nn12)C(F)(F)F (centres unmarked) [Example 0796] |  | 4.46
21 | CC(C)(C)CNC(=O)/C=C/c1c(-c2ccccc2Cl)nc2sc(C(C)(C)C)nn12 [Example 0797] |  | 4.06
22 | CC(C)CCNC(=O)/C=C/c1c(-c2ccccc2Cl)nc2sc(C(C)(C)C)nn12 [Example 0798] |  | 4.11
23 | CC(C)(C)c1nn2c(/C=C/C(=O)NC3CCC(C(F)(F)F)CC3)c(-c3ccccc3Cl)nc2s1 (centres unmarked) [Example 0799] |  | 4.32
24 | CC(C)(C)NC(=O)/C=C/c1c(-c2ccccc2Cl)nc2sc(C(C)(C)C)nn12 [Example 0801] |  | 3.95
25 | CC(C)NC(=O)/C=C/c1c(-c2ccccc2Cl)nc2sc(C(C)(C)C)nn12 [Example 0802] |  | 3.33
26 | CCC(C)NC(=O)/C=C/c1c(-c2ccccc2Cl)nc2sc(C(C)(C)C)nn12 (centres unmarked) [Example 0803] |  | 3.67
27 | CC(C)(C)CCNC(=O)/C=C/c1c(-c2ccccc2Cl)nc2sc(C(C)(C)C)nn12 [Example 0805] |  | 4.4
28 | CC(C)(C)c1nn2c(/C=C/C(=O)NC3CC3)c(-c3ccccc3Cl)nc2s1 [Example 0807] |  | 3.07
29 | CC(C)(C)c1nn2c(/C=C/C(=O)NC3CCC3)c(-c3ccccc3Cl)nc2s1 [Example 0808] |  | 3.52

Continued, values first:

Row | Physical data: log P | Physical data: logP | Structure (SMILES)
30 | 3.68 |  | COCC(C)NC(=O)/C=C/c1c(-c2cccc(C(F)(F)F)c2)nc2sc(C(F)(F)F)nn12 (centres unmarked) [Example 0382]
31 | 4.46 |  | CC(C)C(C)NC(=O)/C=C/c1c(-c2cccc(C(F)(F)F)c2)nc2sc(C(F)(F)F)nn12 (centres unmarked) [Example 0387]
32 | 4.27 |  | CC(NC(=O)/C=C/c1c(-c2cccc(C(F)(F)F)c2)nc2sc(C(F)(F)F)nn12)C(F)(F)F (centres unmarked) [Example 0388]
33 | 4.46 |  | CC(NC(=O)/C=C/c1c(-c2cccc(C(F)(F)F)c2)nc2sc(C(F)(F)F)nn12)c1ccccc1 (centres unmarked) [Example 0402]
34 | 4.72 |  | CCC(NC(=O)C=Cc1c(-c2cccc(C(F)(F)F)c2)nc2sc(C(F)(F)F)nn12)c1ccccc1 (centres unmarked) [Example 0403]
35 | 4.67 |  | CC(COc1ccccc1)NC(=O)/C=C/c1c(-c2cccc(C(F)(F)F)c2)nc2sc(C(F)(F)F)nn12 (centres unmarked) [Example 0407]
36 | 5.48 |  | CCC(NC(=O)C=Cc1c(-c2cccc(C(F)(F)F)c2)nc2sc(C(F)(F)F)nn12)C1CCCCC1 (centres unmarked) [Example 0409]
37 | 3.81 |  | O=C(/C=C/c1c(-c2cccc(C(F)(F)F)c2)nc2sc(C(F)(F)F)nn12)NOCC1CC1 [Example 0424]
38 | 4.37 |  | CC(ONC(=O)/C=C/c1c(-c2cccc(C(F)(F)F)c2)nc2sc(C(F)(F)F)nn12)c1ccccc1 (centres unmarked) [Example 0426]
39 | 4.41 |  | CCC(CC)NC(=O)/C=C/c1c(-c2cccc(C(F)(F)F)c2)nc2sc(C(F)(F)F)nn12 [Example 0428]
40 | 3.68 |  | CN(C)C(=O)/C=C/c1c(-c2cccc(C(F)(F)F)c2)nc2sc(C(F)(F)F)nn12 [Example 0429]
41 | 4.05 |  | CCN(C)C(=O)/C=C/c1c(-c2cccc(C(F)(F)F)c2)nc2sc(C(F)(F)F)nn12 [Example 0430]
42 | 4.22 |  | C=CCN(C)C(=O)/C=C/c1c(-c2cccc(C(F)(F)F)c2)nc2sc(C(F)(F)F)nn12 [Example 0431]
43 | 4.01 |  | CON(C)C(=O)/C=C/c1c(-c2cccc(C(F)(F)F)c2)nc2sc(C(F)(F)F)nn12 [Example 0433]
44 | 4.42 |  | CCN(CC)C(=O)/C=C/c1c(-c2cccc(C(F)(F)F)c2)nc2sc(C(F)(F)F)nn12 [Example 0434]
45 | 4.51 |  | O=C(/C=C/c1c(-c2cccc(C(F)(F)F)c2)nc2sc(C(F)(F)F)nn12)N1CCCCC1 [Example 0435]
46 | 3.55 |  | O=C(/C=C/c1c(-c2cccc(C(F)(F)F)c2)nc2sc(C(F)(F)F)nn12)N1CCOCC1 [Example 0436]
47 | 3.55 |  | CC(C)(C)NC(=O)/C=C/c1c(-c2ccccc2F)nc2sc(C(F)(F)F)nn12 [Example 0444]
48 | 3.45 |  | CCN(CC)C(=O)/C=C/c1c(-c2ccccc2F)nc2sc(C(F)(F)F)nn12 [Example 0505]
49 | 4.32 |  | CCC(CC)NC(=O)/C=C/c1c(-c2ccc(Cl)cc2Cl)nc2sc(C(F)(F)F)nn12 [Example 0567]
50 | 3.46 |  | CN(C)C(=O)/C=C/c1c(-c2ccc(Cl)cc2Cl)nc2sc(C(F)(F)F)nn12 [Example 0568]

Row | Physical data: log P | Physical data: logP | Structure (SMILES)
51 | 3.82 |  | CCN(C)C(=O)/C=C/c1c(-c2ccc(Cl)cc2Cl)nc2sc(C(F)(F)F)nn12 [Example 0569]
52 | 4.0 |  | C=CCN(C)C(=O)/C=C/c1c(-c2ccc(Cl)cc2Cl)nc2sc(C(F)(F)F)nn12 [Example 0570]
53 | 3.8 |  | CON(C)C(=O)/C=C/c1c(-c2ccc(Cl)cc2Cl)nc2sc(C(F)(F)F)nn12 [Example 0572]
54 | 4.12 |  | O=C(C=Cc1c(-c2ccc(F)cc2Cl)nc2sc(C(F)(F)F)nn12)NC1CCCCC1C(F)(F)F (centres unmarked) [Example 0600]
55 | 4.25 |  | O=C(C=Cc1c(-c2ccc(F)cc2Cl)nc2sc(C(F)(F)F)nn12)NC(CC(F)(F)F)c1ccccc1 (centres unmarked) [Example 0609]
56 |  | 3.79 | CCN(CC)C(=O)/C=C/c1c(-c2ccc(F)cc2Cl)nc2sc(C(F)(F)F)nn12 [Example 0644]
57 |  | 4.28 | O=C(/C=C/c1c(-c2ccc(F)cc2Cl)nc2sc(C(F)(F)F)nn12)N1CCCC(C(F)(F)F)C1 (centres unmarked) [Example 0648]
58 |  | 2.85 | COc1ccc(-c2nc3sc(C(F)(F)F)nn3c2/C=C/C(=O)NC(C)C)cc1OC [Example 0652]
59 |  | 2.64 | COc1ccc(-c2nc3sc(C(F)(F)F)nn3c2/C=C/C(=O)NC2CC2)cc1OC [Example 0656]
60 |  | 3.03 | COc1ccc(-c2nc3sc(C(F)(F)F)nn3c2/C=C/C(=O)NC2CCC2)cc1OC [Example 0657]
61 |  | 2.95 | COc1ccc(-c2nc3sc(C(F)(F)F)nn3c2/C=C/C(=O)NCC2CC2)cc1OC [Example 0660]
62 |  | 3.14 | CCC(C)NC(=O)/C=C/c1c(-c2ccc(OC)c(OC)c2)nc2sc(C(F)(F)F)nn12 (centres unmarked) [Example 0661]
63 |  | 3.5 | CCCC(C)NC(=O)/C=C/c1c(-c2ccc(OC)c(OC)c2)nc2sc(C(F)(F)F)nn12 (centres unmarked) [Example 0662]
64 |  | 2.7 | COCC(C)NC(=O)/C=C/c1c(-c2ccc(OC)c(OC)c2)nc2sc(C(F)(F)F)nn12 (centres unmarked) [Example 0663]
65 |  | 3.41 | COc1ccc(-c2nc3sc(C(F)(F)F)nn3c2/C=C/C(=O)NC(C)C(C)C)cc1OC (centres unmarked) [Example 0668]
66 |  | 3.29 | COc1ccc(-c2nc3sc(C(F)(F)F)nn3c2/C=C/C(=O)NC(C)C(F)(F)F)cc1OC (centres unmarked) [Example 0669]
67 |  | 3.76 | CCC(NC(=O)/C=C/c1c(-c2ccc(OC)c(OC)c2)nc2sc(C(F)(F)F)nn12)c1ccccc1 (centres unmarked) [Example 0684]
68 |  | 2.88 | COc1ccc(-c2nc3sc(C(F)(F)F)nn3c2/C=C/C(=O)NOCC2CC2)cc1OC [Example 0706]
69 |  | 3.37 | CCC(CC)NC(=O)/C=C/c1c(-c2ccc(OC)c(OC)c2)nc2sc(C(F)(F)F)nn12 [Example 0710]
70 |  | 3.53 | CCN(CC)C(=O)/C=C/c1c(-c2ccc(OC)c(OC)c2)nc2sc(C(F)(F)F)nn12 [Example 0716]
71 |  | 3.61 | CC(C)(C)c1nn2c(/C=C/C(=O)NCC(F)(F)F)c(-c3ccccc3Cl)nc2s1 [Example 0800]
